Assay results as given in patent publication US10028934B2, “Substituted indazole derivatives active as kinase inhibitiors” (NERVIANO MEDICAL SCIENCES S.R.L., priority 2011, dated 2018).
Counter-ions that a name gives are not always drawn.

Legend:
MOLM-13 cells = assay: In vitro cell proliferation assay, MOLM-13 (CellTiter-Glo); assay type: cell-based; settings: human acute leukemia cells bearing FLT3-ITD mutation, 72 h
Experimental: (§1) The human acute leukemia MOLM-13 AND MV-4-11 cells, bearing a FLT3-ITD mutation, were seeded (5000 cells/well) in white 384 well-plates in complete medium (RPMI 1640 plus 10% Fetal bovine serum) and treated with compounds dissolved in 0.1% DMSO, 24 h after seeding. The cells were incubated at 37° C. and 5% CO2 and after 72 h the plates were processed using CellTiter-Glo assay (Promega) following the manufacturer's instruction.
(§2) CellTiter-Glo is a homogenous method based on the quantification of the ATP present, an indicator of metabolitically active cells. ATP was quantified using a system based on luciferase and D-luciferin resultant into light generation. The luminescent signal was proportional to the number of cells present in culture. Briefly, 25 microL/well reagent solution were added to each well and, after 5 minutes shaking, microplates were read by Envision (PerkinElmer) luminometer. Inhibitory activity was evaluated comparing treated versus control data using Symyx Assay Explorer (Symyx Technologies Inc.) program. IC50 was calculated using sigmoidal interpolation curve.

MV-4-11 cells = assay: In vitro cell proliferation assay, MV-4-11 (CellTiter-Glo); assay type: cell-based; settings: MV4-11; human acute leukemia cells bearing FLT3-ITD mutation, 72 h
Experimental: as §1, §2

[1] = target: KIT kinase (GST-KIT cytoplasmic domain) (Homo sapiens (Human), UniProt P10721); assay: Biochemical assay for inhibitors of KIT kinase activity; settings: pre activated enzyme 4 nM, 4.4 microM ATP, 60 minutes at r.t.
KIT kinase (GST-KIT cytoplasmic domain), sequence (P10721 544-976): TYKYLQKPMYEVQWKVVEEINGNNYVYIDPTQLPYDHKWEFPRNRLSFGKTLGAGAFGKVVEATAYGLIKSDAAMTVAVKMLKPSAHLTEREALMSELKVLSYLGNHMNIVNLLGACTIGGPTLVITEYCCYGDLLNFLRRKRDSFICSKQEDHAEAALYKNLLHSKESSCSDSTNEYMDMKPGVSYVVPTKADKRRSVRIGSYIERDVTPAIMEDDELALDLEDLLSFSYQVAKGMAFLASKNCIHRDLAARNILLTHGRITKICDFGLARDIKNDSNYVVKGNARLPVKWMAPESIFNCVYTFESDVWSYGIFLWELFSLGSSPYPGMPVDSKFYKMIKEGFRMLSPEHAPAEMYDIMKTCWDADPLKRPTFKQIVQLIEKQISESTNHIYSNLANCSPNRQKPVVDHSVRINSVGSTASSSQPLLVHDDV
Experimental: The GST-KIT cytoplasmic domain has been expressed in Sf21 cells infected for 66 hrs at 27° C. The recombinant protein has been purified by affinity on GSH-sepharose and eluted with glutathione. […] At the end of the phosphorylation reaction, the not reacted ATP, cold and radioactive, was captured by an excess of dowex ion exchange resin that eventually settled by gravity to the bottom of the reaction plate. […] 500 g of wet resin (SIGMA, custom prepared resin DOWEX 1×8 200-400 mesh, 2.5 Kg) were weighed out and diluted to 2 L in 150 mM sodium formate, pH 3.00. The resin was allowed to settle down overnight and then the supernatant was discarded. After three washes as above over a couple of days, the resin was allowed to settle and two volumes (with respect to the resin volume) were added of 150 mM sodium formate buffer. […] NO: 2). The peptide was purchased from American Peptide Company (Sunnyvale, Calif.). […] An automated station for serial dilutions (Biomek FX, Beckman) was used for producing 1:3 dilutions in 100% DMSO, from line A1 to A10, and for all the compounds in the column. […] The following dispensation into the plates plus 3 cycles of mixing, done by the robot itself, started the kinase reaction. At this point, the correct concentrations were restored for all the reagents. […]

| Compound | IC50 (MOLM-13 cells) [µM] | IC50 (MV-4-11 cells) [µM] | IC50 [1] [µM] |
| --- | --- | --- | --- |
| CN(C)C1CCN(c2ccc(C(=O)Nc3n[nH]c4cc(OCCOCc5ccccc5)ccc34)cc2)CC1 [Cpd. 15, N-[6-(2-Benzyloxy-ethoxy)-1H-indazol-3-yl]-4-(4-dimethylamino-piperidin-1-yl)-benzamide] | < 0.05 | < 0.05 |  |
| CN1CCN(c2ccc(C(=O)Nc3n[nH]c4cc(OCc5ccccc5)ccc34)cc2)CC1 [Cpd. 1, N-(6-Benzyloxy-1H-indazol-3-yl)-4-(4-methyl-piperazin-1-yl)-benzamide] | 0.789 | 0.683 |  |
| CN1CCN(c2ccc(C(=O)Nc3n[nH]c4cc(Oc5cccc(F)c5)ccc34)cc2)CC1 [Cpd. 3, N-[6-(3-Fluoro-phenoxy)-1H-indazol-3-yl]-4-(4-methyl-piperazin-1-yl)-benzamide] | 0.99 | 0.987 |  |
| CN1CCN(c2ccc(C(=O)Nc3n[nH]c4cc(OC5CCN(Cc6ccccc6)CC5)ccc34)cc2)CC1 [Cpd. 6, N-[6-(1-Benzyl-piperidin-4-yloxy)-1H-indazol-3-yl]-4-(4-methyl-piperazin-1-yl)-benzamide] | 0.673 | 0.163 |  |
| CN1CCN(c2ccc(C(=O)Nc3n[nH]c4cc(OCCOCc5ccccc5)ccc34)cc2)CC1 [Cpd. 11, N-[6-(2-Benzyloxy-ethoxy)-1H-indazol-3-yl]-4-(4-methyl-piperazin-1-yl)-benzamide] | < 0.05 | < 0.05 |  |
| CN(C)CCCN(C)c1ccc(C(=O)Nc2n[nH]c3cc(OCCOCc4ccccc4)ccc23)cc1 [Cpd. 17, N-[6-(2-Benzyloxy-ethoxy)-1H-indazol-3-yl]-4-[(3-dimethylamino-propyl)-methyl-amino]-benzamide] | 0.087 | < 0.05 |  |
| CN1CCN(c2ccc(C(=O)Nc3n[nH]c4cc(OCCOc5ccccc5)ccc34)cc2)CC1 [Cpd. 10, 4-(4-Methyl-piperazin-1-yl)-N-[6-(2-phenoxy-ethoxy)-1H-indazol-3-yl]-benzamide] | 0.139 | 0.118 |  |
| CN1CCN(c2ccc(C(=O)Nc3n[nH]c4cc(OCC#Cc5ccccc5)ccc34)cc2)CC1 [Cpd. 7, 4-(4-Methyl-piperazin-1-yl)-N-[6-(3-phenyl-prop-2-ynyloxy)-1H-indazol-3-yl]-benzamide] | 0.24 | 0.11 |  |
| CN1CCN(c2ccc(C(=O)Nc3n[nH]c4cc(Oc5ccc(Oc6ccccc6)cc5)ccc34)cc2)CC1 [Cpd. 8, 4-(4-Methyl-piperazin-1-yl)-N-[6-(4-phenoxy-phenoxy)-1H-indazol-3-yl]-benzamide] | 1.98 | 2.75 |  |
| CN(C)Cc1ccc(C(=O)Nc2n[nH]c3cc(OCCOCc4ccccc4)ccc23)cc1 [Cpd. 21, N-[6-(2-Benzyloxy-ethoxy)-1H-indazol-3-yl]-4-dimethylaminomethyl-benzamide] | 0.068 |  |  |
| C[N+]1([O-])CCN(c2ccc(C(=O)Nc3n[nH]c4cc(OCCOCc5ccccc5)ccc34)cc2)CC1 [Cpd. 14, N-[6-(2-Benzyloxy-ethoxy)-1H-indazol-3-yl]-4-(4-methyl-4-oxy-piperazin-1-yl)-benzamide] | < 0.05 | < 0.05 |  |
| CN1CCN(c2ccc(C(=O)Nc3n[nH]c4cc(OCc5cccc(Oc6ccccc6)c5)ccc34)cc2)CC1 [Cpd. 5, 4-(4-Methyl-piperazin-1-yl)-N-[6-(3-phenoxy-benzyloxy)-1H-indazol-3-yl]-benzamide] | 0.557 | 0.513 |  |
| CN(C)CCN(C)c1ccc(C(=O)Nc2n[nH]c3cc(OCCOCc4ccccc4)ccc23)cc1 [Cpd. 16, N-[6-(2-Benzyloxy-ethoxy)-1H-indazol-3-yl]-4-[(2-dimethylamino-ethyl)-methyl-amino]-benzamide] | < 0.05 | < 0.05 |  |
| CN1CCN(c2ccc(C(=O)Nc3n[nH]c4cc(Oc5ccc(OCc6ccccc6)cc5)ccc34)cc2)CC1 [Cpd. 4, N-[6-(4-Benzyloxy-phenoxy)-1H-indazol-3-yl]-4-(4-methyl-piperazin-1-yl)-benzamide] | 0.092 | < 0.05 |  |
| CN1CCN(c2ccc(C(=O)Nc3n[nH]c4cc(Oc5cccc(OCc6ccccc6)c5)ccc34)cc2)CC1 [Cpd. 9, N-[6-(3-Benzyloxy-phenoxy)-1H-indazol-3-yl]-4-(4-methyl-piperazin-1-yl)-benzamide] | 0.245 | 0.101 |  |
| CN1CCN(c2ccc(C(=O)Nc3n[nH]c4cc(Oc5ccccc5)ccc34)cc2)CC1 [Cpd. 2, 4-(4-Methyl-piperazin-1-yl)-N-(6-phenoxy-1H-indazol-3-yl)-benzamide] | 1.16 | 1.48 |  |

Other lines, results leading:

| IC50 (MOLM-13 cells) [µM] | IC50 (MV-4-11 cells) [µM] | IC50 [1] [µM] | Compound |
| --- | --- | --- | --- |
| < 0.05 | < 0.05 |  | CN1CCC(Nc2ccc(C(=O)Nc3n[nH]c4cc(OCCOCc5ccccc5)ccc34)cc2)CC1 [Cpd. 19, N-[6-(2-Benzyloxy-ethoxy)-1H-indazol-3-yl]-4-(1-methyl-piperidin-4-ylamino)-benzamide] |
| < 0.05 | < 0.05 |  | O=C(Nc1n[nH]c2cc(OCCOCc3ccccc3)ccc12)c1ccc(N2CC(N3CCCC3)C2)cc1 [Cpd. 28, N-[6-(2-Benzyloxy-ethoxy)-1H-indazol-3-yl]-4-(3-pyrrolidin-1-yl-azetidin-1-yl)-benzamide] |
| < 0.05 | < 0.05 |  | CN1CCC(CNc2ccc(C(=O)Nc3n[nH]c4cc(OCCOCc5ccccc5)ccc34)cc2)CC1 [Cpd. 27, N-[6-(2-Benzyloxy-ethoxy)-1H-indazol-3-yl]-4-[(1-methyl-piperidin-4-ylmethyl)-amino]-benzamide] |
| < 0.05 | < 0.05 |  | O=C(Nc1n[nH]c2cc(OCCOCc3ccccc3)ccc12)c1ccc(NCCN2CCOCC2)cc1 [Cpd. 25, N-[6-(2-Benzyloxy-ethoxy)-1H-indazol-3-yl]-4-(2-morpholin-4-yl-ethylamino)-benzamide hydrochloride] |
| < 0.05 | < 0.05 |  | CN1CCN(c2cccc(C(=O)Nc3n[nH]c4cc(OCCOCc5ccccc5)ccc34)c2)CC1 [Cpd. 29, N-[6-(2-Benzyloxy-ethoxy)-1H-indazol-3-yl]-3-(4-methyl-piperazin-1-yl)-benzamide hydrochloride] |
| < 0.05 | < 0.05 |  | CN1CCN(c2ccc(C(=O)Nc3n[nH]c4cc(OCCOCc5cccc(C(F)(F)F)c5)ccc34)cc2)CC1 [Cpd. 34, 4-(4-Methyl-piperazin-1-yl)-N-{6-[2-(3-trifluoromethyl-benzyloxy)-ethoxy]-1H-indazol-3-yl}-benzamide] |
| < 0.05 | < 0.05 | 0.05 | CN1CCN(c2ccc(C(=O)Nc3n[nH]c4cc(OCCOCc5ccc(C(F)(F)F)cc5)ccc34)cc2)CC1 [Cpd. 33, 4-(4-Methyl-piperazin-1-yl)-N-{6-[2-(4-trifluoromethyl-benzyloxy)-ethoxy]-1H-indazol-3-yl}-benzamide] |
| < 0.05 | < 0.05 |  | CN1CCN(c2ccc(C(=O)Nc3n[nH]c4cc(OCCOCc5ccccc5)ccc34)c(F)c2)CC1 [Cpd. 38, N-[6-(2-Benzyloxy-ethoxy)-1H-indazol-3-yl]-2-fluoro-4-(4-methyl-piperazin-1-yl)-benzamide] |
| < 0.05 | < 0.05 |  | COc1ccc(COCCOc2ccc3c(NC(=O)c4ccc(N5CCN(C)CC5)cc4)n[nH]c3c2)cc1 [Cpd. 40, N-{6-[2-(4-Methoxy-benzyloxy)-ethoxy]-1H-indazol-3-yl}-4-(4-methyl-piperazin-1-yl)-benzamide] |
| 0.065 | < 0.05 |  | CN1CCC(Oc2ccc(C(=O)Nc3n[nH]c4cc(OCCOCc5ccccc5)ccc34)cc2)CC1 [Cpd. 22, N-[6-(2-Benzyloxy-ethoxy)-1H-indazol-3-yl]-4-(1-methyl-piperidin-4-yloxy)-benzamide] |
| < 0.05 | < 0.05 | 0.05 | CN1CCN(c2ccc(C(=O)Nc3n[nH]c4cc(OCCOCc5ccc(F)cc5)ccc34)cc2)CC1 [Cpd. 32] |
| 0.24 | 0.118 |  | CN1CCN(c2ccc(C(=O)Nc3n[nH]c4cc(OCCOCc5ccccc5)ccc34)c(N3CCN(C)CC3)c2)CC1 [Cpd. 43, N-[6-(2-Benzyloxy-ethoxy)-1H-indazol-3-yl]-2,4-bis-(4-methyl-piperazin-1-yl)-benzamide] |
| 0.081 | 0.05 |  | CN1CCN(c2ccc(C(=O)Nc3n[nH]c4cc(OC/C=C/c5ccccc5)ccc34)cc2)CC1 [Cpd. 39, 4-(4-Methyl-piperazin-1-yl)-N-[6-((E)-3-phenyl-allyloxy)-1H-indazol-3-yl]-benzamide] |
